Measurements published in patent US20250230171A1 (MOMA Therapeutics, Inc., priority 2023, published 2025).
Like-named read-outs stand apart in the source and are kept apart here.

Experiments:
DLD1 WT cells = experiment: 7-day cell viability assay (CellTiter-Glo), DLD1 parental (WT); format: cell-based, human; details: 7-day CellTiter-Glo, n=2
Protocol: (§1) Cell lines DLD1 WT and DLD1 BRCA2 (−/−) (Horizon Discovery Cat No. HD PAR-008 and HD-105-007) were plated in 384-well culture plates at seeding densities of 100cells/50 ul/well and 200 cells/50 uL/well respectively. The seeding densities are pre-determined from the growth curve kinetics performed to ensure log linear phase of cell growth for these 2 cell lines. These assay plates are then placed in the incubator at 37° C., 5% CO2, relative humidity >90% for a few hours before addition of test compounds. Compounds are dispensed using the Tecan HPD300 or Echo based on the plate map in the appropriate wells of the 384-well plates. The cells are treated with nine-point dose response with 3-fold serial dilutions of test compounds starting at 10 uM top concentration. After addition of the test compounds, the plates are incubated at 37° C., 5% CO2, relative humidity >90% for 7 days. CellTiter-Glo (Promega Cat. No. G7573), ATP detection reagent is prepared according to manufacturer's specifications. Cell assay plates are removed from incubator and bring to room temperature (RT) by letting them sit at bench top for at least 15 min. Using the MultiDrop liquid handler or a multichannel pipette, 35 μL/well of CTG is added and the plates are then placed shakes for 5 seconds, RT.

DLD1 BRCA2 (−/−) cells = experiment: 7-day cell viability assay (CellTiter-Glo), DLD1 BRCA2 (−/−); format: cell-based, human; details: 7-day CellTiter-Glo, n=2, read-out: Viability IC50 (uM) DLD1 BRCA2 null
Protocol: as §1

IC50 (DLD1 BRCA2 (−/−) cells; Homo sapiens, DLD-1, 168 h) | Compound | IC50 (DLD1 WT cells; Homo sapiens, DLD-1, 168 h) | IC50 (DLD1 WT cells) | IC50 (DLD1 BRCA2 (−/−) cells)
0.001 to 0.1 µM | COc1cnc(Cl)cc1-c1cc(C)ncc1C(=O)Nc1nc2c(s1)CN(C(=O)c1ncc(C)c(C(F)(F)F)c1C)C2 [Example 1011, 2′-chloro-N-(5-(3,5-dimethyl-4-(trifluoromethyl)picolinoyl)-5,6-dihydro-4H-pyrrolo[3,4-d]thiazol-2-yl)-5′-methoxy-6-methyl-[4,4′-bipyridine]-3-carboxamide] | ≥ 10 µM |  | 
0.001 to 0.1 µM | COc1cnc(Cl)cc1-c1cc(C)ncc1C(=O)Nc1nc2c(s1)CN(C(=O)c1cnc(OC(F)F)cc1C)C2 | ≥ 10 µM |  | 
0.001 to 0.1 µM | COc1cnc(Cl)cc1-c1cc(C)ncc1C(=O)Nc1nc2c(s1)CN(C(=O)c1ncc(OC(F)(F)F)cc1C)C2 [Example 1007, 2′-chloro-5′-methoxy-6-methyl-N-(5-(3-methyl-5-(trifluoromethoxy)picolinoyl)-5,6-dihydro-4H-pyrrolo[3,4-d]thiazol-2-yl)-[4,4′-bipyridine]-3-carboxamide] | ≥ 10 µM |  | 
0.001 to 0.1 µM | COc1cnc(Cl)cc1-c1cc(C)ncc1C(=O)Nc1nc2c(s1)CN(C(=O)c1nc(C)c(C#N)cc1F)C2 [Example 1006, 2′-chloro-N-(5-(5-cyano-3-fluoro-6-methylpicolinoyl)-5,6-dihydro-4H-pyrrolo[3,4-d]thiazol-2-yl)-5′-methoxy-6-methyl-[4,4′-bipyridine]-3-carboxamide] | ≥ 10 µM |  | 
0.001 to 0.1 µM | COc1cnc(Cl)cc1-c1cc(C)ncc1C(=O)Nc1nc2c(s1)CN(C(=O)c1cccc(OC)c1Cl)C2 [Example 396, 2′-chloro-N-(5-(2-chloro-3-methoxybenzoyl)-5,6-dihydro-4H-pyrrolo[3,4-d]thiazol-2-yl)-5′-methoxy-6-methyl-[4,4′-bipyridine]-3-carboxamide] | ≥ 10 µM |  | 
0.1 to 0.25 µM | COc1cnc(Cl)cc1-c1cc(C)ncc1C(=O)Nc1nc2c(s1)CN(C(=O)c1cc(C)cc(Cl)n1)C2 [Example 392, 2′-chloro-N-(5-(6-chloro-4-methylpicolinoyl)-5,6-dihydro-4H-pyrrolo[3,4-d]thiazol-2-yl)-5′-methoxy-6-methyl-[4,4′-bipyridine]-3-carboxamide] | ≥ 10 µM |  | 
0.001 to 0.1 µM | COc1cnc(Cl)cc1-c1cc(C)ncc1C(=O)Nc1nc2c(s1)CN(C(=O)c1ccc(C#N)cn1)C2 [Example 578] | 5 to 10 µM |  | 
0.001 to 0.1 µM | COc1cnc(Cl)cc1-c1cc(C)ncc1C(=O)Nc1nc2c(s1)CN(C(=O)c1nc(C(F)(F)F)ccc1F)C2 [Example 936, 2′-chloro-N-(5-(3-fluoro-6-(trifluoromethyl)picolinoyl)-5,6-dihydro-4H-pyrrolo[3,4-d]thiazol-2-yl)-5′-methoxy-6-methyl-[4,4′-bipyridine]-3-carboxamide] | ≥ 10 µM |  | 
0.001 to 0.1 µM | COc1nc(C(F)(F)F)ccc1C(=O)N1Cc2nc(NC(=O)c3cnc(C)cc3-c3cc(C(F)F)nnc3OC)sc2C1 [Example 1025, 4-(6-(difluoromethyl)-3-methoxypyridazin-4-yl)-N-(5-(2-methoxy-6-(trifluoromethyl)nicotinoyl)-5,6-dihydro-4H-pyrrolo[3,4-d]thiazol-2-yl)-6-methylnicotinamide] | ≥ 10 µM |  | 
0.001 to 0.1 µM | COc1cnc(Cl)cc1-c1cc(C)ncc1C(=O)Nc1nc2c(s1)CN(C(=O)c1cc(C)c(C(F)(F)F)nc1C)C2 | ≥ 10 µM |  | 
0.001 to 0.1 µM | COc1cnc(Cl)cc1-c1cc(C)ncc1C(=O)Nc1nc2c(s1)CN(C(=O)c1c(C)cc(C(F)(F)F)nc1C)C2 [Example 649] | ≥ 10 µM |  | 
0.001 to 0.1 µM | COc1cnc(Cl)cc1-c1cc(C)ncc1C(=O)Nc1nc2c(s1)CN(C(=O)c1ncc(C(F)(F)F)nc1OC)C2 [Example 945, 2′-chloro-5′-methoxy-N-(5-(3-methoxy-5-(trifluoromethyl)pyrazine-2-carbonyl)-5,6-dihydro-4H-pyrrolo[3,4-d]thiazol-2-yl)-6-methyl-[4,4′-bipyridine]-3-carboxamide] | ≥ 10 µM |  | 
0.001 to 0.1 µM | CCOc1nc(C(F)(F)F)ccc1C(=O)N1Cc2nc(NC(=O)c3cnc(C)cc3-c3cc(Cl)ncc3OC)sc2C1 [Example 969, 2′-chloro-N-(5-(2-ethoxy-6-(trifluoromethyl)nicotinoyl)-5,6-dihydro-4H-pyrrolo[3,4-d]thiazol-2-yl)-5′-methoxy-6-methyl-[4,4′-bipyridine]-3-carboxamide] | ≥ 10 µM |  | 
 | 2′-chloro-N-(5-(3-chloro-5-(1,1-difluoroethyl)picolinoyl)-5,6-dihydro-4H-pyrrolo[3,4-d]thiazol-2-yl)-5′-methoxy-6-methyl-[4,4′-bipyridine]-3-carboxamide [Example 625] |  | ≥ 10 µM | 0.1 to 0.25 µM
0.001 to 0.1 µM | COc1ccc(C#N)cc1-c1cc(C)ncc1C(=O)Nc1nc2c(s1)CN(C(=O)c1ccc(C(F)(F)F)nc1OC)C2 [Example 1005, 4-(5-cyano-2-methoxyphenyl)-N-(5-(2-methoxy-6-(trifluoromethyl)nicotinoyl)-5,6-dihydro-4H-pyrrolo[3,4-d]thiazol-2-yl)-6-methylnicotinamide] | ≥ 10 µM |  | 
0.001 to 0.1 µM | COc1ncc(Cl)cc1-c1cc(C)ncc1C(=O)Nc1nc2c(s1)CN(C(=O)c1ccc(C(F)(F)F)c(OC)n1)C2 [Example 1035, 5-chloro-2-methoxy-N-(5-(6-methoxy-5-(trifluoromethyl)picolinoyl)-5,6-dihydro-4H-pyrrolo[3,4-d]thiazol-2-yl)-6′-methyl-[3,4′-bipyridine]-3′-carboxamide] | ≥ 10 µM |  | 
0.001 to 0.1 µM | COc1cnc(Cl)cc1-c1cc(C)ncc1C(=O)Nc1nc2c(s1)CN(C(=O)c1nccc(C(F)(F)F)c1OC)C2 [Example 968, 2′-chloro-5′-methoxy-N-(5-(3-methoxy-4-(trifluoromethyl)picolinoyl)-5,6-dihydro-4H-pyrrolo[3,4-d]thiazol-2-yl)-6-methyl-[4,4′-bipyridine]-3-carboxamide] | ≥ 10 µM |  | 
0.001 to 0.1 µM | COc1cnc(Cl)cc1-c1cc(C)ncc1C(=O)Nc1nc2c(s1)CN(C(=O)c1ccc(OC(F)F)c(C)n1)C2 [Example 1008, 2′-chloro-N-(5-(5-(difluoromethoxy)-6-methylpicolinoyl)-5,6-dihydro-4H-pyrrolo[3,4-d]thiazol-2-yl)-5′-methoxy-6-methyl-[4,4′-bipyridine]-3-carboxamide] | ≥ 10 µM |  | 
0.001 to 0.1 µM | COc1cnc(Cl)cc1-c1cc(C)ncc1C(=O)Nc1nc2c(s1)CN(C(=O)c1ccc(OC(F)F)cc1)C2 | ≥ 10 µM |  | 
0.001 to 0.1 µM | COc1cnc(C(F)F)cc1-c1cc(C)ncc1C(=O)Nc1nc2c(s1)CN(C(=O)c1ccc(C(F)(F)F)nc1OC)C2 [Example 1016, 2′-(difluoromethyl)-5′-methoxy-N-(5-(2-methoxy-6-(trifluoromethyl)nicotinoyl)-5,6-dihydro-4H-pyrrolo[3,4-d]thiazol-2-yl)-6-methyl-[4,4′-bipyridine]-3-carboxamide] | ≥ 10 µM |  | 
0.1 to 0.25 µM | COc1cnc(Cl)cc1-c1cc(C)ncc1C(=O)Nc1nc2c(s1)CN(C(=O)c1ncc(OC(F)F)cc1Cl)C2 | ≥ 10 µM |  | 
 | 2′-Chloro-5′-methoxy-6-methyl-N-(5-(3-methyl-5-(trifluoromethoxy)picolinoyl)-5,6-dihydro-4H-pyrrolo[3,4-d]thiazol-2-yl)-[4,4′-bipyridine]-3-carboxamide [Example 560] |  | ≥ 10 µM | 0.001 to 0.1 µM
 | 2′-Chloro-N-(5-(5-(difluoromethyl)-3-methoxypyrazine-2-carbonyl)-5,6-dihydro-4H-pyrrolo[3,4-d]thiazol-2-yl)-5′-methoxy-6-methyl-[4,4′-bipyridine]-3-carboxamide [Example 418] |  | 5 to 10 µM | 0.001 to 0.1 µM
0.001 to 0.1 µM | COc1cnc(Cl)cc1-c1cc(C)ncc1C(=O)Nc1nc2c(s1)CN(C(=O)c1nc(C)c(OC(F)F)cc1C)C2 [Example 1027, 2′-chloro-N-(5-(5-(difluoromethoxy)-3,6-dimethylpicolinoyl)-5,6-dihydro-4H-pyrrolo[3,4-d]thiazol-2-yl)-5′-methoxy-6-methyl-[4,4′-bipyridine]-3-carboxamide] | ≥ 10 µM |  | 
0.001 to 0.1 µM | COc1ncc(Cl)cc1-c1cc(C)ncc1C(=O)Nc1nc2c(s1)CN(C(=O)c1nc(OC)c(C(F)(F)F)cc1C)C2 [Example 1044, 5-chloro-2-methoxy-N-(5-(6-methoxy-3-methyl-5-(trifluoromethyl)picolinoyl)-5,6-dihydro-4H-pyrrolo[3,4-d]thiazol-2-yl)-6′-methyl-[3,4′-bipyridine]-3′-carboxamide] | ≥ 10 µM |  | 
0.001 to 0.1 µM | COc1cnc(Cl)cc1-c1cc(C)ncc1C(=O)Nc1nc2c(s1)CN(C(=O)c1nc(C)c(C(F)F)cc1F)C2 [Example 621] | ≥ 10 µM |  | 
0.001 to 0.1 µM | COc1cnc(Cl)cc1-c1cc(C)ncc1C(=O)Nc1nc2c(s1)CN(C(=O)c1ccc(OC(F)(F)F)c(Cl)n1)C2 [Example 997] | ≥ 10 µM |  | 
0.5 to 2 µM | COc1cnc(Cl)cc1-c1cc(C)ncc1C(=O)Nc1nc2c(s1)CN(C(=O)c1ncc(Cl)nc1C)C2 | ≥ 10 µM |  | 
0.001 to 0.1 µM | COc1cnc(Cl)cc1-c1cc(C)ncc1C(=O)Nc1nc2c(s1)CN(C(=O)c1nc(C(F)F)ccc1C)C2 | ≥ 10 µM |  | 
